Drawing on PubChem BioAssay (NCI), this text covers GI50 and TGI for 17 compounds.

Common to all, as to experiment: NCI anticancer screen, dose series, 48 h
Assay [1] has as its system ACHN renal.
In assay [2] the test system is CCRF-CEM leukemia.
The test system of assay [3] is DU-145 prostate.
The subject of assay [4] is HCT-15 colon.
In assay [5] the test system is HOP-92 NSCLC.
The subject of assay [6] is MDA-MB-231 breast.
Assay [7] concerns NCI-H522 lung.
Assay [8] deals with NCI/ADR-RES ovarian.
The subject of assay [9] is SF-295 CNS.
Assay [10] concerns U251 CNS.

Values joined by “and” are separate entries in the source; they are usually repeats but may differ in a detail not shown here. Identical values can stand only once.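 Grown in 96-well plates, cells were treated for 48 hours with each compound at five concentrations. Insufficient inhibition: endpoint recorded as highest concentration tested. Abbreviation: GI50, concentration required for 50% inhibition of growth. TGI marks complete inhibition of growth.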

On to `Nc1nccc(-c2c(-c3ccc(F)cc3)nn3cc(C(F)(F)F)ccc23)n1`, for which the GI50 in assay [1] is above 25 µM; in assay [2] it was above 25 µM; in [3], above 25 µM; in [4] it was above 25 µM; in [5], 5.75 µM; in assay [6], above 25 µM. In addition, the GI50 in [7], in [8], in assay [9] and in assay [10] was above 25 µM throughout. The TGI in assay [1], in [2], in [3], in [4], in assay [5] and in assay [6] was above 25 µM throughout. The TGI in assay [7], in [8], in assay [9] and in [10] was above 25 µM throughout.
For the compound `C(=Nc1nc(SCc2ccccc2)nc2[nH]ncc12)c1cccs1`, the GI50 in assay [1] is 43.6 µM; in [2], 37.2 µM; in assay [3] it was 43 µM; in assay [4], 85.4 µM; in assay [5], 10.7 µM; in assay [6], 37.3 µM. For the same compound, the GI50 in assay [7] is 59.2 µM; in assay [8] it was 49.6 µM; in [9], above 100 µM; in assay [10], 43.6 µM. Moreover, the TGI was above 100 µM in [1]; above 100 µM in [2]; above 100 µM in assay [3]; above 100 µM in [4]; 50 µM in assay [5]; above 100 µM in [6]. Also, the TGI in [7], in assay [8], in assay [9] and in assay [10] was above 100 µM in each case.
For the compound `CC(=O)O[C@H]1CC2C(C3CC[C@H](C(C)CCC(=O)O)[C@]31C)[C@H](OC(C)=O)C[C@@H]1CC3(CC[C@]21C)OOC1(CCC(C)CC1)OO3` (stereo partly specified), the TGI in assay [1] was 15.8 µM and 9.72 µM; in [2], 5.26 µM and 4.09 µM; in assay [3], 18 µM and 13.5 µM; in assay [4], 13.9 µM and 7.4 µM; in assay [5] it was 23.2 µM and 5.95 µM; in assay [6], 29.2 µM and 7.65 µM. Further, the TGI in [7] was 12.3 µM and 3.48 µM; in assay [8], 18.3 µM and 4.53 µM; in [9], 19.8 µM and 5.53 µM; in assay [10], 17.2 µM and 3.71 µM. In addition, the GI50 in [5] was 10.1 µM and 2.34 µM; in [6] it was 9.81 µM and 2.79 µM; in assay [8], 4.88 µM and 2.02 µM; in [9] it was 7.46 µM and 2.25 µM.
Consider `COc1cc(OC)c(OC)cc1/C=C/c1nc2ccccc2s1`, for which the TGI was above 100 µM in assay [1]; above 100 µM in assay [2]; above 100 µM in assay [3]; above 100 µM in assay [4]; 56.9 µM in assay [5]; above 100 µM in assay [6]. The TGI in assay [7], in [8], in assay [9] and in assay [10] was above 100 µM in each case.
In the case of `ClCCOCCn1cnc2c(Cl)nc(Cl)nc21`, the GI50 in [1] is 14.4 µM; in assay [2] it was 11.7 µM; in [3] it was 10.2 µM; in [4], 4.89 µM; in assay [5] it was 18.9 µM; in assay [6], 14.4 µM. The GI50 is 20 µM in assay [7], 17.9 µM in [8], 14 µM in [9] and 12.3 µM in [10]. The TGI was 27.5 µM in assay [1]; above 100 µM in [2]; 21.9 µM in assay [3]; 18.9 µM in assay [4]; 45.5 µM in [5]; 28.3 µM in [6]. Further, the TGI is 50 µM in assay [7], 41.4 µM in assay [8], 29.3 µM in [9] and 24.7 µM in [10].
For `O=C(COc1ccc(/C=C2\Oc3ccccc3C2=O)cc1)Nc1nc2ccccc2s1`, the GI50 in [1] was 28.9 µM; in assay [2] it was 0.17 µM; in [3], 5.59 µM; in assay [4] it was 33.8 µM; in assay [6], 4.7 µM; in [7] it was 0.207 µM. In addition, the results for the GI50 in assay [8], in assay [9] and in [10] were 2.92 µM, 28.7 µM and 6.35 µM, respectively. The TGI in [1] is above 100 µM; in assay [2], 0.332 µM; in [3], above 100 µM; in [4], above 100 µM; in assay [6], 60.3 µM; in assay [7], 0.487 µM. In addition, the results for the TGI in [8], in assay [9] and in assay [10] were above 100 µM, above 75.3 µM and above 100 µM, respectively.
Regarding `O=C(O)CN(CCN(CC(=O)O)CC(=O)O)CC(=O)O.[Mn+2]`, the GI50 in [1], in [2], in [3], in assay [4], in assay [6] and in assay [7] was above 100 µM each time. The GI50 in assay [8], in assay [9] and in [10] was above 100 µM throughout. In addition, the TGI in assay [1], in assay [2], in assay [3], in assay [4], in assay [6] and in assay [7] was above 100 µM in each case. In addition, the TGI in assay [8], in [9] and in [10] was above 100 µM throughout.
Turning to `[O]=[V]([OH])([OH])[OH]`, the GI50 in assay [1], in assay [2], in assay [3], in assay [4], in assay [6] and in assay [7] was above 100 µM in each case. Also, the GI50 in assay [8], in assay [9] and in assay [10] was above 100 µM throughout. Besides, the TGI in [1], in assay [2], in assay [3], in [4], in [6] and in [7] was above 100 µM throughout. Moreover, the TGI in assay [8], in assay [9] and in [10] was above 100 µM each time.
Consider `COc1cc(-c2nccc3[nH]c(-c4ccc5cc[nH]c5c4)nc23)cc(OC)c1OC`, for which the GI50 in assay [1] was below 0.01 µM; in [2] it was below 0.01 µM; in [3], below 0.01 µM; in [4], below 0.01 µM; in [5], 0.306 µM; in assay [6] it was below 0.01 µM. Further, the GI50 in [8] is 0.01 µM; in assay [9], below 0.01 µM; in assay [10] it was below 0.01 µM. Moreover, the TGI came to 3.02 µM in assay [1]; 12.2 µM in assay [2]; 11.4 µM in [3]; 1.31 µM in assay [4]; 4.98 µM in [5]; 1.96 µM in assay [6]. The TGI in [8] is 10.7 µM; in assay [9], below 0.01 µM; in assay [10] it was 1.85 µM.
For `CCSCC1CC(O)(c2ccccc2)C(c2ccccc2)C(c2ccc(F)cc2)O1` (stereo unspecified), the GI50 in assay [1] is 2.22 µM; in assay [2], 3.15 µM; in [3] it was 2.75 µM; in assay [4], 1.76 µM; in assay [5] it was 1.23 µM; in assay [6] it was 2.58 µM. Also, the figures for the GI50 in [7], in [8] and in assay [10] were 1.57 µM, 1.89 µM and 1.75 µM, respectively. Moreover, the TGI in assay [1] is 5.54 µM; in assay [2], 32.1 µM; in assay [3], 6.99 µM; in [4], 3.99 µM; in assay [5], 3.15 µM; in assay [6], 8.3 µM. The TGI in assay [7] came out at 4.84 µM; in assay [8], 6.67 µM; in [10] it was 3.91 µM.
In the case of `COc1ccc(-c2nc3ccc(Cc4ccc5nc(-c6ccc(OC)cc6)[nH]c5c4)cc3[nH]2)cc1`, the GI50 was 0.101 µM in assay [1]; below 0.01 µM in assay [2]; 0.0385 µM in [3]; 0.394 µM in assay [5]; 0.0476 µM in [6]; 0.0171 µM in assay [7]. For the same compound, the GI50 is 0.0354 µM in [8], 0.0176 µM in assay [9] and 0.028 µM in assay [10]. Also, the TGI in [1] came out at 1.96 µM; in assay [2], 0.275 µM; in [3] it was 0.154 µM; in assay [5] it was 2.26 µM; in [6], 0.586 µM; in [7], 0.0535 µM. The results for the TGI in assay [8], in [9] and in assay [10] were 1.84 µM, 0.364 µM and 0.162 µM, respectively.
Take `CCc1ccc(Nc2cc(C)c3ccc(O)cc3n2)cc1`: the GI50 is 5.82 µM in assay [1]; 12.1 µM in assay [3]; 2.95 µM in assay [4]; 2.81 µM in [5]; 3.12 µM in assay [6]; 6.44 µM in assay [8]. Besides, the GI50 in assay [9] is 5.06 µM; in assay [10] it was 6.84 µM. For the same compound, the TGI in assay [1] was 19.5 µM; in assay [3] it was 28.1 µM; in [4] it was 12.8 µM; in assay [5] it was 10.8 µM; in assay [6] it was 13.7 µM; in assay [8] it was above 100 µM. Also, the values for the TGI in assay [9] and in [10] were 20.3 µM and 22.5 µM, respectively.
Take `C#Cc1ccc(-n2c(/C=C/c3ccc(O)cc3)nc3ncccc3c2=O)cc1`: the GI50 was 6.31 µM in [1]; 3.3 µM in assay [2]; 4.1 µM in [3]; 4.65 µM in assay [4]; 1.8 µM in assay [5]; 11.4 µM in assay [6]. In addition, the GI50 was 2 µM in assay [7], 5.27 µM in [8] and 4.02 µM in [10]. In addition, the TGI was above 100 µM in assay [1]; above 100 µM in [2]; 76.5 µM in assay [3]; above 100 µM in assay [4]; 17.1 µM in assay [5]; above 100 µM in assay [6]. The TGI in assay [7] was 6.04 µM; in [8], above 100 µM; in assay [10], above 100 µM.
As to `COc1ccccc1CNCCN1C(=O)c2ccc3c4c(ccc(c24)C1=O)C(=O)N(CCNCc1ccccc1OC)C3=O`, the GI50 in assay [1] was 0.39 µM; in [2], 0.244 µM; in [3] it was 0.321 µM; in assay [5], 1.71 µM; in assay [6] it was 0.277 µM; in [7], 0.137 µM. The figures for the GI50 in assay [8] and in assay [10] were 0.283 µM and 0.225 µM, respectively. Besides, the TGI in assay [1] is 1.24 µM; in [3], 1.11 µM; in assay [5], 4.38 µM; in [6], 0.817 µM; in assay [7], 0.314 µM; in assay [8], 0.831 µM. This compound also displayed a TGI in assay [10] of 0.505 µM.
Turning to `COCCOC1=C(Cl)C(=O)c2ccccc2C1=O`, the GI50 in assay [1] is 1.88 µM; in assay [3], 3.1 µM; in [4], 2.88 µM; in assay [5], 1.41 µM; in assay [6], 2.81 µM; in assay [7] it was 1.47 µM. For the same compound, the GI50 in assay [8] was 2.39 µM; in assay [9], 4.42 µM; in assay [10], 3.14 µM. The TGI in [1] was determined as 3.59 µM; in [3] it was 10.7 µM; in assay [4] it was 9.65 µM; in assay [5], 2.93 µM; in assay [6], 11.7 µM; in assay [7], 2.9 µM. In addition, the results for the TGI in assay [8], in assay [9] and in assay [10] were 6.7 µM, 15.9 µM and 10 µM, respectively.
For the compound `CCOC(=O)/C(=C\c1cccc(C)c1)C(C)=O`, the TGI was 66 µM in [1]; 38.7 µM in assay [3]; 38.9 µM in assay [4]; 34.8 µM in assay [5]; 28.9 µM in [6]; 22.8 µM in assay [7]. For the same compound, the TGI in assay [8] is 79.5 µM; in assay [9] it was 55.8 µM; in assay [10], 26.2 µM.
Turning to `CSc1nc2nc(-c3ccccc3)c(C)c-2c2n1C(C)C(=O)N2` (stereo unspecified), the GI50 was 38.1 µM in assay [1]; 51.9 µM in assay [3]; 51.2 µM in [4]; 40.8 µM in assay [5]; 83.4 µM in [6]; 38.1 µM in [7]. Also, the GI50 was 38.8 µM in [8], 24 µM in [9] and 68.2 µM in [10]. The TGI in assay [1], in assay [3], in assay [4], in assay [5], in assay [6] and in [7] was above 100 µM throughout. For the same compound, the TGI in assay [8], in [9] and in assay [10] was above 100 µM throughout.
